Tests used:
clean wounds = assay: rate of healing of clean wounds; type: in vivo; conditions: ribose by itself
Source text: (§1) Only with respect to the skin has ribose been used for healing purposes, and these are for wound healing in which ribose in combination with other nutrients improved the rate of healing. […] It then became reasonable to assume that this combination should be extended to internal wounds.

infected wounds = assay: rate of healing of infected wounds, ribose combined with antibiotics; type: in vivo
Source text: as §1

appetite = appetite after D-ribose aqueous solution given during a meal; type: in vivo, people
Source text: This brings up the paradoxical role that ribose plays with respect to appetite. Ribose is offered to consumers primarily because it is rate-limiting in the production of phosphoribosylpyrophosphate (PRPP), a precursor for salvage and for de novo adenine nucloeotide synthetic pathways, which maintain, AMP and ADP (adenosine diphosphate) for re-synthesis of ATP. The high-energy bonds of ATP are the direct source for muscle contraction including myocardial contractions but also energize every cell in the body, especially the immune system under attack. The presence of de novo D-ribose not only enables ATP to be synthesized much faster, but its presence also serves to stimulate the salvage of these nucleotides. With this in mind, a curious thing has been observed. […] The only explanation for this is that the salvage of these nucleotides especially ATP is stimulated by forcibly spraying the ribose onto the tongue. This causes the stomach to send out less of the hormone ghrelin and a full feeling ensues with less food. If a person is ill, care must be taken not to spray ribose forcibly on the tongue by pump action or compressed gas, but rather have it be swallowed immediately or given parenterally.

ATP synthesis = conditions: with de novo D-ribose; 72 to 96 hours ordinarily required from glucose; cited from earlier work

Question: Which “rate of healing of clean wounds” value (clean wounds) does the source give for `O=C[C@H](O)[C@H](O)[C@H](O)CO` [D-ribose] here?
Answer: will improve the rate of healing of clean wounds

Question: What about the “rate of healing of infected wounds” value (infected wounds) of the same compound?
Answer: will improve the rate of healing infected wounds

Question: What about the effect on appetite (appetite; aqueous solution sprayed forcibly by pump action on the tongue during a meal) of the same compound?
Answer: causes the appetite to abate in many people

Question: What about the effect on appetite (appetite; ribose swallowed) of the same compound?
Answer: far less such effect

Question: And the “time for synthesis of ATP” value (ATP synthesis)?
Answer: ≥ 8 h

— US20030045482A1, “Using D-ribose with or without anti-microbial agents to enhance healing and subsequent recovery by both synthesizing and sparing NAD derivatives” (priority 2000, published 2003)
